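Interpolation was linear, between the two tested concentrations surrounding the appropriate level; five concentrations were tested over 48 hours in 96-well plates. At the TGI there is no net growth.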
Experiments:
Assay in all cases: growth of human tumour cells (NCI), 48 h
IGROV1 ovarian = tested on: IGROV1 ovarian
NCI-H226 lung = tested on: NCI-H226 lung
MDA-N = tested on: MDA-N
BT-549 breast = tested on: BT-549 breast
OVCAR-8 ovarian = tested on: OVCAR-8 ovarian
SK-MEL-5 melanoma = tested on: SK-MEL-5 melanoma
HCC-2998 colon = tested on: HCC-2998 colon
ACHN renal = tested on: ACHN renal
HT29 colon = tested on: HT29 colon
A498 renal = tested on: A498 renal
HOP-62 NSCLC = tested on: HOP-62 NSCLC
M14 melanoma = tested on: M14 melanoma
UACC-257 melanoma = tested on: UACC-257 melanoma
MDA-MB-231 breast = tested on: MDA-MB-231 breast
MOLT-4 leukemia = tested on: MOLT-4 leukemia
A549 NSCLC = tested on: A549 NSCLC
NCI-H522 lung = tested on: NCI-H522 lung
HS 578T breast = tested on: HS 578T breast
OVCAR-4 ovarian = tested on: OVCAR-4 ovarian
PC-3 prostate = tested on: PC-3 prostate
MDA-MB-435 = tested on: MDA-MB-435
RPMI-8226 leukemia = tested on: RPMI-8226 leukemia
OVCAR-3 ovarian = tested on: OVCAR-3 ovarian
HCT-15 colon = tested on: HCT-15 colon
UACC-62 melanoma = tested on: UACC-62 melanoma
T-47D breast = tested on: T-47D breast
HL-60(TB) leukemia = tested on: HL-60(TB) leukemia
LOX IMVI melanoma = tested on: LOX IMVI melanoma
SK-MEL-2 melanoma = tested on: SK-MEL-2 melanoma
SK-OV-3 ovarian = tested on: SK-OV-3 ovarian
K-562 leukemia = tested on: K-562 leukemia
EKVX NSCLC = tested on: EKVX NSCLC
COLO 205 colon = tested on: COLO 205 colon
SF-295 CNS = tested on: SF-295 CNS
CCRF-CEM leukemia = tested on: CCRF-CEM leukemia
SN12C renal = tested on: SN12C renal
UO-31 renal = tested on: UO-31 renal
786-0 renal = tested on: 786-0 renal
SF-268 CNS = tested on: SF-268 CNS
SNB-75 CNS = tested on: SNB-75 CNS
DU-145 prostate = tested on: DU-145 prostate
NCI-H23 lung = tested on: NCI-H23 lung
SK-MEL-28 melanoma = tested on: SK-MEL-28 melanoma
OVCAR-5 ovarian = tested on: OVCAR-5 ovarian
NCI/ADR-RES ovarian = tested on: NCI/ADR-RES ovarian
TK-10 renal = tested on: TK-10 renal
RXF 393 renal = tested on: RXF 393 renal
KM12 colon = tested on: KM12 colon
SW-620 colon = tested on: SW-620 colon
MCF7 breast = tested on: MCF7 breast
U251 CNS = tested on: U251 CNS
HOP-92 NSCLC = tested on: HOP-92 NSCLC
NCI-H460 lung = tested on: NCI-H460 lung
CAKI-1 renal = tested on: CAKI-1 renal
SF-539 CNS = tested on: SF-539 CNS
MALME-3M melanoma = tested on: MALME-3M melanoma
HCT-116 colon = tested on: HCT-116 colon
SNB-19 CNS = tested on: SNB-19 CNS

## COC(=O)Cc1cc2c(cc1C(=O)c1ccc(N)cc1)OCO2
IGROV1 ovarian
  TGI: 13 µM
NCI-H226 lung
  TGI: > 100 µM
MDA-N
  TGI: 1.43 µM
BT-549 breast
  TGI: > 20.3 µM
OVCAR-8 ovarian
  TGI: > 34.5 µM
SK-MEL-5 melanoma
  TGI: 4.49 µM
HCC-2998 colon
  TGI: 3.58 µM
ACHN renal
  TGI: > 100 µM
HT29 colon
  TGI: 3.99 µM
A498 renal
  TGI: > 27.4 µM
HOP-62 NSCLC
  TGI: > 100 µM
M14 melanoma
  TGI: > 100 µM
UACC-257 melanoma
  TGI: > 100 µM
MDA-MB-231 breast
  TGI: > 30.9 µM
MOLT-4 leukemia
  TGI: 33.8 µM
A549 NSCLC
  TGI: > 77.8 µM
NCI-H522 lung
  TGI: 1.01 µM
HS 578T breast
  TGI: > 25.4 µM
OVCAR-4 ovarian
  TGI: > 100 µM
PC-3 prostate
  TGI: > 27.2 µM
MDA-MB-435
  TGI: 0.667 µM
RPMI-8226 leukemia
  TGI: 6.08 µM
OVCAR-3 ovarian
  TGI: 6.99 µM
HCT-15 colon
  TGI: > 37.7 µM
UACC-62 melanoma
  TGI: > 55 µM
T-47D breast
  TGI: > 100 µM
HL-60(TB) leukemia
  TGI: > 26.2 µM
LOX IMVI melanoma
  TGI: > 100 µM
SK-MEL-2 melanoma
  TGI: 5.36 µM
SK-OV-3 ovarian
  TGI: > 29.2 µM
K-562 leukemia
  TGI: > 100 µM
EKVX NSCLC
  TGI: > 100 µM
COLO 205 colon
  TGI: 10 µM
SF-295 CNS
  TGI: 5.33 µM
CCRF-CEM leukemia
  TGI: 8 µM
SN12C renal
  TGI: > 100 µM
UO-31 renal
  TGI: > 100 µM
786-0 renal
  TGI: > 100 µM
SF-268 CNS
  TGI: > 30.7 µM
SNB-75 CNS
  TGI: 5.84 µM
DU-145 prostate
  TGI: > 39.1 µM
NCI-H23 lung
  TGI: > 100 µM
SK-MEL-28 melanoma
  TGI: > 100 µM
OVCAR-5 ovarian
  TGI: 83.3 µM
NCI/ADR-RES ovarian
  TGI: 15.3 µM
TK-10 renal
  TGI: > 100 µM
RXF 393 renal
  TGI: > 23.9 µM
KM12 colon
  TGI: > 100 µM
SW-620 colon
  TGI: > 100 µM
MCF7 breast
  TGI: > 100 µM
U251 CNS
  TGI: > 100 µM
HOP-92 NSCLC
  TGI: 61 µM
NCI-H460 lung
  TGI: > 100 µM
CAKI-1 renal
  TGI: > 100 µM
SF-539 CNS
  TGI: > 27.2 µM
MALME-3M melanoma
  TGI: > 100 µM
HCT-116 colon
  TGI: > 45.9 µM
SNB-19 CNS
  TGI: > 82.8 µM

From PubChem BioAssay (NCI)
